Drawing on ChEMBL document CHEMBL4000226, “Inhibitory potential of flavonoids on PtdIns(3,4,5)P3 binding with the phosphoinositide-dependent kinase 1 pleckstrin homology domain” (Bioorg Med Chem Lett, 2017), this text covers inhibition for ten molecules.

For experiment [1], the target named is 3-phosphoinositide-dependent protein kinase 1 (Homo sapiens) (UniProt O15530). Briefly: Inhibition of sucrose loaded POPC/POPE/POPS/PtdIns(3,4,5)P3 (59:20:20:1) liposome binding to eGFP-fused PDK1 PH domain (unknown origin) expressed in Escherichia coli BL21 after 10 mins by fluorescence spectrophotometry based pull down assay.
Experiment [2] shares this target. Briefly: Inhibition of sucrose loaded POPC/POPE/POPS/PtdIns(3,4,5)P3 (59:20:20:1) liposome binding to eGFP-fused PDK1 PH domain (unknown origin) expressed in Escherichia coli BL21 at 10 uM after 10 mins by fluorescence spectrophotometry based pull down assay.

Molecules are shown by their SMILES. The source made the active and inactive calls. The calls are words filed in the database; no cut-off is given here.

3-phosphoinositide-dependent protein kinase 1 (Homo sapiens), sequence (O15530 whole entry, looked up, the tested form may be a part): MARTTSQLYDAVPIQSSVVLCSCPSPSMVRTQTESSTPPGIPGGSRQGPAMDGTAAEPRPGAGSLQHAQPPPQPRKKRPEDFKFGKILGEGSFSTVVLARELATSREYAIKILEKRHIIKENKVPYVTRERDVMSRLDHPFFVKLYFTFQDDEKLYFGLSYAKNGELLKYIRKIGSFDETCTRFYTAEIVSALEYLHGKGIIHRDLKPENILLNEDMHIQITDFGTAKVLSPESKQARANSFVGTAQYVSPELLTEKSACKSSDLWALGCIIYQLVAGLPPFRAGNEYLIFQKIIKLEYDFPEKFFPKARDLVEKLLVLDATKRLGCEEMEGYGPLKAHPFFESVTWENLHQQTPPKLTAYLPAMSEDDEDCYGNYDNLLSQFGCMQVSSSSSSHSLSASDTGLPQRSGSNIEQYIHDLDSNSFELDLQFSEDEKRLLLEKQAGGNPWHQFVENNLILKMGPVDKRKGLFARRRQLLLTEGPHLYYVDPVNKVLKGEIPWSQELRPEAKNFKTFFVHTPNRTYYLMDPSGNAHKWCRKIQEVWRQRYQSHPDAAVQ

As for `O=c1c(O)c(-c2ccc(O)c(O)c2)oc2c(O)c(O)cc(O)c12`, the inhibition result in experiment [1] was “Dose-dependent effect”. As for `O=c1c(O)c(-c2ccc(O)c(O)c2)oc2cc(O)ccc12`, the inhibition entry in experiment [1] was “Dose-dependent effect”. The inhibition result in experiment [2] is “Active”. Turning to `O=c1c(O)c(-c2ccccc2)oc2cc(O)cc(O)c12`, the inhibition result in experiment [2] was “Active”. As for `O=c1cc(-c2ccc(O)cc2)oc2cc(O)ccc12`, the inhibition entry in experiment [2] was “Active”.

As for `O=c1c(O)c(-c2ccc(O)c(O)c2)oc2cc(O)cc(O)c12`, in experiment [1], the inhibition entry was “Dose-dependent effect”. Consider `COc1ccc2c(=O)cc(-c3ccccc3)oc2c1OC`, for which the inhibition entry in experiment [2] was “Active”. Consider `COc1cc(OC)c2c(=O)cc(-c3ccccc3)oc2c1`, for which the inhibition entry in experiment [2] is “Active”. In the case of `O=c1cc(-c2ccccc2)oc2ccccc12`, the inhibition entry in experiment [2] is “Active”. `O=c1c(O)c(-c2cc(O)c(O)c(O)c2)oc2cc(O)cc(O)c12`: the inhibition result in experiment [1] was “Dose-dependent effect”. Take `O=c1cc(-c2ccccc2)oc2cc(O)cc(O)c12`: the inhibition result in experiment [2] was “Active”.
